Laboratory results as given in paper PMC11277004, “Di- and Triselenoesters—Promising Drug Candidates for the Future Therapy of Triple-Negative Breast Cancer” (International Journal of Molecular Sciences, 2024).
Read-outs that look alike come from different tables or passages of the source.

Experiments:
Format in all cases: cell-based, human
caspase 8 = assay: Caspase 8 activity (FAM-FLICA, flow cytometry), MCF-7; conditions: 24 h
Protocol: The FAM-FLICA® Caspase Assay kits (all from ImmunoChemistry Technologies, Bloomington, MN, USA) and flow cytometer (BD FACSCanto II, BD Biosciences Systems, San Jose, CA, USA) were used to evaluate the activity of caspase 3/7, 8, and 9. MCF-7 and MDA-MB-231 cells were treated with selenoesters under the study (EDAG-1 and EDAG-8) and a reference agent (cisplatin) at two different concentrations (0.5 and 1 µM; treatment duration: 24 h). Following this, cells were collected, washed twice with cold PBS, and resuspended in an Apoptosis Wash Buffer to a final concentration of 5 × 10^5 cells/mL. In the next step, 290 µL each of cell suspension was taken and transferred into tubes. Then 10 µL of FLICA solution diluted immediately before use (1:5 v/v, using PBS) was added to the cells, mixed by pipetting, and incubated in the dark for 1 h at 37 °C. After this time, the cells were washed twice with 2 mL Apoptosis Wash Buffer, centrifuged, and resuspended in 300 µL of the buffer. Thus, prepared samples were immediately analyzed using a BD FACSCanto II flow cytometer (10,000 events) with the FACSDiva 6.0 software (both from BD Biosciences Systems, San Jose, CA, USA). The equipment calibration was carried out using the BD Cytometer Setup and Tracking Beads (BD Biosciences, San Diego, CA, USA).

Bcl-2 = Bcl-2 protein level by flow cytometry, MDA-MB-231; conditions: 24 h
Protocol: (§1) For this purpose, Akt (PE), Bax (FITC), Bcl-2 (Alexa Fluor® 647), LC3A/B (Alexa Fluor® 488), and p53 (Alexa Fluor® 488) antibodies conjugated to different fluorochromes (all from Cell Signaling Technology, Beverly, MA, USA) were utilized. Each assay was performed according to the manufacturer's protocol available on their website. After incubation with the tested compounds, the cells were centrifuged, resuspended in 4% formaldehyde (100 μL/1 × 10^6 cells), and fixed for 15 min at room temperature. Afterward, to remove the formaldehyde, the cells were washed by centrifugation with excess PBS and the permeabilization step was triggered. For this purpose, ice-cold 90% methanol was added to the pre-chilled cell pellet, gently vortexed, and incubated for 1 h on ice. Later, the cells were washed by centrifugation with excess PBS again, resuspended in 100 μL of 1:100 diluted primary antibody (stain buffer was used for dilution), and incubated for 1 h at room temperature in the dark. After incubation, the cells were washed, resuspended in 300 μL PBS, and immediately tested with a flow cytometer (BD FACSCanto II, BD Biosciences Systems, San Jose, CA, USA; 10,000 events measured). The obtained results were analyzed using the FACSDiva 6.0 software (BD Biosciences Systems, San Jose, CA, USA). In the case of the p53 protein, the MRF values were obtained first during the flow cytometer readout utilizing FACSDiva software and later analyzed using FCS Express 7 (De Novo Software, Pasadena, CA, USA). The equipment calibration was performed using the BD Cytometer Setup and Tracking Beads (BD Biosciences, San Diego, CA, USA).

p53 = p53 protein expression by flow cytometry, MCF-7; conditions: 24 h
Protocol: as §1

[1] = test system: MCF-7 breast cancer cells; assay: MTT cytotoxicity test, MCF-7; conditions: MCF-7, 24 h incubation, read-out: IC50, cell viability (MTT)
Protocol: MCF-7 and MDA-MB-231 human breast cancer cell lines, as well as MCF-10A normal human breast epithelial cells, were acquired from the American Type Culture Collection (ATCC, Manassas, VA, USA). The characteristics of the breast cancer cell lines used in this study are compared in Table 1. MCF-7 and MDA-MB-231 cells were cultured in Dulbecco’s modified Eagle’s medium (Gibco, San Diego, CA, USA), while MCF-10A cells were cultured in the mammary epithelial cell growth medium with the following supplements: BPE, hEGF, insulin, hydrocortisone, GA-1000 (Lonza, Basel, Switzerland). All media were complemented by 10% of fetal bovine serum (FBS) and 1% of the following antibiotics: penicillin and streptomycin (both Gibco, San Diego, CA, USA). The cells were maintained in an incubator that provides the optimal growth conditions for the cell culture: 5% CO2, 37 °C, and humidity in a range of 90–95%. The cells were cultured in 100 mm plates (Sarstedt, Newton, NC, USA). Subsequently, after obtaining a subconfluent cell culture, the cells were detached with 0.05% trypsin with 0.02% EDTA (Gibco, San Diego, CA, USA). […] In this study, cells that obtained 80% confluence were used. The MTT assay was used to determine the cytotoxic effects of the compounds in the study on MCF-7 and MDA-MB-231 breast cancer cells as well as MCF-10A normal human breast epithelial cells based on Carmichael’s method. […] After this time, the medium was removed, and the cell monolayer was washed with warm phosphate-buffered saline (PBS) without calcium and magnesium. In the next step, PBS and MTT solution in PBS (5 mg/mL) were added to each well to obtain a final MTT concentration of 0.5 mg/mL, and then the cells were incubated for 4 h (37 °C temperature, 5% CO2, 90–95% humidity). After the incubation period, the contents of each well were removed, 1 mL of DMSO was added to dissolve the formazan, and then the plate with the added DMSO was mixed for 5–10 min on a microplate shaker (Boeco, Hamburg, Germany). Then, 10 µL of Sorensen’s glycine buffer (a solution of 0.1 M glycine and 0.1 M sodium chloride adjusted to pH 10.5 with 0.1 M sodium hydroxide) was added. The absorbance of the obtained solution was immediately measured at a wavelength of λ = 570 nm using a Thermo Scientific Evolution 201 UV–VIS spectrophotometer (Thermo Fisher Scientific, Waltham, MA, USA). The absorbance result obtained in the control cells (without the addition of the tested compounds) was taken as 100%, while the viability of cells incubated with the tested compounds was presented as a percentage of the control value.

Row | Structure (SMILES) | Active caspase 8 ± SD (cells) (caspase 8; MCF-7, 0.5 μM) | Active caspase 8 ± SD (cells) (caspase 8; MCF-7, 1 μM) | Bcl-2 negative cells ± SD (Bcl-2; MDA-MB-231, 0.5 μM) | Bcl-2 negative cells ± SD (Bcl-2; MDA-MB-231, 1 μM) | p53 protein expression, MRF (p53; MCF-7, 0.5 μM) | p53 protein expression, MRF (p53; MCF-7, 1 μM) | IC50 ([1]; Homo sapiens, MCF7) | IC50 [1]
1 | CC(=O)C[Se]C(=O)c1ccc(C(=O)[Se]CC(C)=O)cc1 [EDAG-1, Se,Se-bis(2-oxopropyl) benzene-1,4-bis(carboselenoate)] | 6.1 ± 0.6% | 6.6 ± 1.1% | 36.1 ± 1.6% | 68.9 ± 5.7% | 404.8 ± 23.7 | 407.8 ± 22.0 | 470 ± 60 nM | 
2 | CC(=O)C[Se]C(=O)c1cc(C(=O)[Se]CC(C)=O)cc(C(=O)[Se]CC(C)=O)c1 [EDAG-8, Se,Se,Se-tris-(2-oxopropyl) benzene-1,3,5-tris-(carboxyselenoate)] | 8.5 ± 0.8% | 19.4 ± 2.6% | 51.7 ± 3.5% | 74.9 ± 2.7% | 421.3 ± 24.5 | 450.8 ± 28.7 | 610 ± 50 nM | 
3 | N.N.[Cl][Pt][Cl] [Cisplatin, reference compound] | 3.7 ± 0.2% | 4.1 ± 0.2% | 4.3 ± 0.3% | 4.5 ± 0.6% | 375.8 ± 19.1 | 380.5 ± 20.4 |  | > 5000 nM
